Here are results for 98 molecules from ChEMBL document CHEMBL1134567, “Prediction of the aroma quality and the threshold values of some pyrazines using artificial neural networks” (J Med Chem, 2001).

One assay in a line: Evaluated for its olfactory detection threshold value and indicates quantitative measure of odor impression. The assay is classed as functional.
Turning to `CCCCCCCCCCc1nccnc1OC`, the Log 1/C worked out at 3.8. For `CCCCCCCCc1nccnc1OC`, the Log 1/C turned out to be 6.57. In turn, `CCc1cnc(C)cn1` returned a Log 1/C of 2.45.

`CCCCCCCCCCc1nccnc1OCC` displayed a Log 1/C of 3.64. As for `CCCCCCCCc1nccnc1OCC`, the Log 1/C came out at 5.07. In turn, `CCCCCCCCc1nccnc1SCC` yielded a Log 1/C of 5.1. Regarding `CCCCCCCCc1nccnc1SC`, the Log 1/C is 5.53.

The next assay is described as follows: Evaluated for its olfactory detection threshold value and indicates quantitative measure of odour impression. The assay is classed as functional.
For the molecule `CCCCc1nccnc1OC`, the Log 1/C worked out at 6.52. `CCCc1nccnc1OC`: the Log 1/C came to 6.1. In turn, `CSc1ncc(CC(C)C)nc1C` had a Log 1/C of 4.12. `CCC(C)CCc1cnc(Oc2ccccc2)c(C)n1` (stereo not drawn) yielded a Log 1/C of 3.29. Still for that read-out and setting: then `Cc1nc(CC(C)C)cnc1Oc1ccccc1`, with 2.88; and `CCCCCc1cnc(C)c(C)n1`, with 3.3. Still for that read-out and setting: then `C=CCCCc1nccnc1OC`, with 6.77; and `COc1nc(C)cnc1CC(C)C`, with 5.84. For `CCCCCc1nccnc1SCC`, the Log 1/C amounted to 5.32.

`COc1nc(C)cnc1C(C)C`: the Log 1/C was found to be 6.57. In turn, `CCCCc1cnccn1` had a Log 1/C of 2.53. Take `CCOc1ncc(CC(C)C)nc1C`: the Log 1/C worked out at 4.08. On the same count and under the same terms, to `COc1ncc(CC(C)C)nc1C` belongs 6; to `CCSc1cnc(CCC(C)CC)cn1` (stereo not drawn), 3.63.

The molecule `CCCC(C)Cc1cnc(SC)c(C)n1` (stereo not drawn) displayed a Log 1/C of 4.27. Molecule `Cc1nccnc1N(C)C` came in with a Log 1/C of 2.88. `COc1nc(C)c(OC)nc1C` came in with a Log 1/C of 2.97.

Consider `COc1nc(C)c(C)nc1CC(C)C`, for which the Log 1/C amounted to 2.79. As for `COc1nc(OC)c(C(C)C)nc1C`, the Log 1/C worked out at 2.89. As for `CC(C)Cc1cncc(N(C)C)n1`, the Log 1/C is 1.55.

Turning to `COc1nccnc1CC(C)C`, the Log 1/C amounted to 7.47. For the molecule `Cc1nccnc1CC(C)C`, the Log 1/C was 3.06.

Molecule `COc1nc(C(C)C)c(OC)nc1C(C)C` gave a Log 1/C of 2.52. On the same count and under the same terms, then `COc1ncc(C)nc1C(C)C`, with 6.52; and `CCOc1ncc(CCC(C)CC)nc1C` (stereo not drawn), with 4.87; and `Cc1nccnc1C(C)C`, with 3.93. On to `COc1nccnc1CCCC(C)C`, for which the Log 1/C was 7.51. The molecule `CCCc1nccnc1SC` came in with a Log 1/C of 5.23. On the same count and under the same terms, to `CC(C)c1cnc(Oc2ccccc2)cn1` belongs 2.79; to `CCCc1nccnc1C`, 3.36.

`C/C=C\CCc1nccnc1OC` displayed a Log 1/C of 5.52.

On to `COc1nccnc1CCC(C)C`, for which the Log 1/C turned out to be 7.46. In the case of `CCCC(C)Cc1nccnc1OC` (stereo not drawn), the Log 1/C turned out to be 7.38. Regarding `CCC(C)Cc1nccnc1OC` (stereo not drawn), the Log 1/C turned out to be 7.18. On the same count and under the same terms, to `CCCCCc1cnccn1` belongs 4.48; to `Cc1ncc(C(C)C)nc1C`, 3.88. The molecule `COc1nc(C(C)C)c(OC)nc1C` yielded a Log 1/C of 3.45. `CCCCCc1nccnc1SC` gave a Log 1/C of 6.21. On to `CCCCCCc1nccnc1OC`, for which the Log 1/C is 6.44. The molecule `CC(C)Cc1cnccn1` displayed a Log 1/C of 2.53. In the case of `COc1ncc(C)nc1CC(C)C`, the Log 1/C was determined as 4.84. Same read-out and setting: then `C/C=C/CCc1nccnc1OC`, with 6.1; and `COc1nccnc1C(C)C`, with 6.8.

In turn, `CCOc1ncc(CC(C)CC)nc1C` (stereo not drawn) gave a Log 1/C of 4.54. Molecule `CCOc1ncc(C(C)CC)nc1C` (stereo not drawn) returned a Log 1/C of 4.21. Molecule `CCSc1ncc(CC(C)CC)nc1C` (stereo not drawn) gave a Log 1/C of 4.95.

`CCC(C)c1nccnc1OC` (stereo not drawn) gave a Log 1/C of 6.62. On to `CSc1nccnc1CC(C)C`, for which the Log 1/C turned out to be 5.74. With `CCCCCc1nccnc1OC`, the Log 1/C turned out to be 6.95.

`CCC(C)Cc1cnc(OC)c(C)n1` (stereo not drawn) returned a Log 1/C of 7.29. The molecule `CSc1nccnc1C(C)C` returned a Log 1/C of 6.55. The molecule `CCC(C)CCc1cnc(OC)c(C)n1` (stereo not drawn) had a Log 1/C of 5.24.

`CCc1nccnc1CC` yielded a Log 1/C of 5.13. `CCCCCc1nccnc1OCC` showed a Log 1/C of 6.38. In turn, `CCCCCCCc1nccnc1OC` registered a Log 1/C of 6.9. Still for that read-out and setting: to `CCCCc1nccnc1SCC` belongs 4.69.

A short description of a further assay: Olfactory detection threshold value and quantitative measure of odour impression; No threshold value. The assay is classed as functional.
As to `CSc1cnccn1`, the “Log 1/C” value is “No threshold value”. On to `CCCCCCC(C)Cc1nccnc1OC` (stereo not drawn), for which the “Log 1/C” value was “No threshold value”. Turning to `CCCC(C)c1nccnc1OC` (stereo not drawn), the “Log 1/C” value is “No threshold value”. Still for that read-out and setting: to `CCOc1cnccn1` belongs “No threshold value”; to `COc1cnccn1`, “No threshold value”; to `CSc1nccnc1C`, “No threshold value”. For the molecule `CCc1nccnc1OC`, the “Log 1/C” value was “No threshold value”.

Consider `Cc1cnc(C)c(C)n1`, for which the “Log 1/C” value is “No threshold value”. For `CSc1cncc(C)n1`, the “Log 1/C” value was “No threshold value”. Turning to `Cc1cnc(C)cn1`, the “Log 1/C” value is “No threshold value”.

On to `CCCCOc1cnccn1`, for which the “Log 1/C” value was “No threshold value”. Turning to `COc1nccnc1C`, the “Log 1/C” value is “No threshold value”. With `COc1cncc(C)n1`, the “Log 1/C” value was “No threshold value”. In the case of `CNc1nccnc1C`, the “Log 1/C” value is “No threshold value”.

As for `CCc1cnccn1`, the “Log 1/C” value was “No threshold value”. Regarding `CCSc1cnccn1`, the “Log 1/C” value is “No threshold value”. In the case of `CCCCCCCCc1nccnc1Sc1ccccc1`, the “Log 1/C” value was “No threshold value”.

As to `COc1nccnc1CCCCCCC(C)C`, the “Log 1/C” value is “No threshold value”. The same measure, in the same setting: then `CCOc1nccnc1CC(C)C`, with “No threshold value”. As to `COc1nc(CC(C)C)cnc1CC(C)C`, the “Log 1/C” value was “No threshold value”. Same read-out and setting: to `Cc1nccnc1C` belongs “No threshold value”.

The nature of a further assay: Evaluated for its olfactory detection threshold value and indicates quantitative measure of odour impression; No threshold value. The assay is classed as functional.
Regarding `CCc1ncc(C)nc1C`, the “Log 1/C” value is “No threshold value”. Still for that read-out and setting: then `COc1ncc(C)nc1C(C)(C)O`, with “No threshold value”; and `COc1nc(C)cnc1C(C)=O`, with “No threshold value”. With `CCc1cnc(C)c(C)n1`, the “Log 1/C” value was “No threshold value”. On the same count and under the same terms, to `Cc1nc(C)c(C)nc1C` belongs “No threshold value”; to `CCSc1nccnc1CC`, “No threshold value”. Consider `COc1nc(C)cnc1C`, for which the “Log 1/C” value is “No threshold value”. `CCOc1nccnc1C`: the “Log 1/C” value was “No threshold value”. On to `CCSc1nccnc1C`, for which the “Log 1/C” value was “No threshold value”. As to `COc1nc(C)cnc1C(C)(C)O`, the “Log 1/C” value is “No threshold value”.

For the molecule `COc1nc(C(C)=O)c(OC)nc1C`, the “Log 1/C” value is “No threshold value”. Turning to `Cc1cnc(C)c(CCC(C)C)n1`, the “Log 1/C” value is “No threshold value”. Regarding `CCc1nc(C)cnc1C`, the “Log 1/C” value was “No threshold value”. On the same count and under the same terms, to `Cc1ncc(CC(C)C)nc1C` belongs “No threshold value”.
